# From the supplement of paper PMC8149375
# Legend:
# 786-O [1] = experiment: minimum viability across doses, drug + dasatinib, relative to DMSO (fraction); higher = less growth inhibition; conditions: treatment: drug + dasatinib (fixed dose, not stated); 5 days
# Experimental: (§1)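 Primary HTS combination arm: 8 RCC cell lines treated with 8 doses (up to 10 uM) of each library drug plus a fixed dose of dasatinib (dose not stated) for 5 days; viability read by CellTiter-Glo and normalised to DMSO. GI50 was fitted with XLfit, AUC is the area under the dose-response curve, and minimum viability is the lowest fraction of DMSO viability across doses.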
# CAKI-1 [2] = experiment: as above; conditions: treatment: drug + dasatinib (fixed dose, not stated); 5 days
# Experimental: as §1
# 769-P [3] = experiment: as above; conditions: treatment: drug + dasatinib (fixed dose, not stated); 5 days
# Experimental: as §1
# TK-10 [4] = experiment: as above; conditions: treatment: drug + dasatinib (fixed dose, not stated); 5 days
# Experimental: as §1
# A498 [5] = experiment: as above; conditions: treatment: drug + dasatinib (fixed dose, not stated); 5 days
# Experimental: as §1
# ACHN [6] = experiment: as above; conditions: treatment: drug + dasatinib (fixed dose, not stated); 5 days
# Experimental: as §1
# SN12C [7] = experiment: as above; conditions: treatment: drug + dasatinib (fixed dose, not stated); 5 days
# Experimental: as §1
# UO-31 [8] = experiment: as above; conditions: treatment: drug + dasatinib (fixed dose, not stated); 5 days
# Experimental: as §1
# 786-O [9] = experiment: AUC of dose-response viability curve, drug + dasatinib, normalised to DMSO (arbitrary (AUC of normalised viability)); higher = less growth inhibition; conditions: treatment: drug + dasatinib (fixed dose, not stated); 5 days
# Experimental: as §1
# CAKI-1 [10] = experiment: as above; conditions: treatment: drug + dasatinib (fixed dose, not stated); 5 days
# Experimental: as §1
# 769-P [11] = experiment: as above; conditions: treatment: drug + dasatinib (fixed dose, not stated); 5 days
# Experimental: as §1
# TK-10 [12] = experiment: as above; conditions: treatment: drug + dasatinib (fixed dose, not stated); 5 days
# Experimental: as §1
# A498 [13] = experiment: as above; conditions: treatment: drug + dasatinib (fixed dose, not stated); 5 days
# Experimental: as §1
# ACHN [14] = experiment: as above; conditions: treatment: drug + dasatinib (fixed dose, not stated); 5 days
# Experimental: as §1
# SN12C [15] = experiment: as above; conditions: treatment: drug + dasatinib (fixed dose, not stated); 5 days
# Experimental: as §1
# UO-31 [16] = experiment: as above; conditions: treatment: drug + dasatinib (fixed dose, not stated); 5 days
# Experimental: as §1
# CAKI-1 [17] = experiment: GI50 of drug in presence of dasatinib; higher = less potent; conditions: treatment: drug + dasatinib (fixed dose, not stated); 5 days
# Experimental: as §1
# TK-10 [18] = experiment: as above; conditions: treatment: drug + dasatinib (fixed dose, not stated); 5 days
# Experimental: as §1
# A498 [19] = experiment: as above; conditions: treatment: drug + dasatinib (fixed dose, not stated); 5 days
# Experimental: as §1
# SN12C [20] = experiment: as above; conditions: treatment: drug + dasatinib (fixed dose, not stated); 5 days
# Experimental: as §1
# UO-31 [21] = experiment: as above; conditions: treatment: drug + dasatinib (fixed dose, not stated); 5 days
# Experimental: as §1
# 786-O [22] = experiment: minimum viability across doses, drug alone, relative to DMSO (fraction); higher = less growth inhibition; conditions: treatment: drug alone; 5 days
# Experimental: as §1, with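 “HTS:” for “HTS combination arm:”, “alone” for “plus a fixed dose of dasatinib (dose not stated)”, “XLfit (4-parameter),” for “XLfit,”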
# CAKI-1 [23] = experiment: as above; conditions: treatment: drug alone; 5 days
# Experimental: as §1, with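 “HTS:” for “HTS combination arm:”, “alone” for “plus a fixed dose of dasatinib (dose not stated)”, “XLfit (4-parameter),” for “XLfit,”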
# 769-P [24] = experiment: as above; conditions: treatment: drug alone; 5 days
# Experimental: as §1, with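 “HTS:” for “HTS combination arm:”, “alone” for “plus a fixed dose of dasatinib (dose not stated)”, “XLfit (4-parameter),” for “XLfit,”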
# TK-10 [25] = experiment: as above; conditions: treatment: drug alone; 5 days
# Experimental: as §1, with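 “HTS:” for “HTS combination arm:”, “alone” for “plus a fixed dose of dasatinib (dose not stated)”, “XLfit (4-parameter),” for “XLfit,”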
# A498 [26] = experiment: as above; conditions: treatment: drug alone; 5 days
# Experimental: as §1, with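 “HTS:” for “HTS combination arm:”, “alone” for “plus a fixed dose of dasatinib (dose not stated)”, “XLfit (4-parameter),” for “XLfit,”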
# ACHN [27] = experiment: as above; conditions: treatment: drug alone; 5 days
# Experimental: as §1, with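 “HTS:” for “HTS combination arm:”, “alone” for “plus a fixed dose of dasatinib (dose not stated)”, “XLfit (4-parameter),” for “XLfit,”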
# SN12C [28] = experiment: as above; conditions: treatment: drug alone; 5 days
# Experimental: as §1, with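 “HTS:” for “HTS combination arm:”, “alone” for “plus a fixed dose of dasatinib (dose not stated)”, “XLfit (4-parameter),” for “XLfit,”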
# UO-31 [29] = experiment: as above; conditions: treatment: drug alone; 5 days
# Experimental: as §1, with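 “HTS:” for “HTS combination arm:”, “alone” for “plus a fixed dose of dasatinib (dose not stated)”, “XLfit (4-parameter),” for “XLfit,”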
# 786-O [30] = experiment: GI50, drug alone; higher = less potent; conditions: treatment: drug alone; 5 days
# Experimental: as §1, with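 “HTS:” for “HTS combination arm:”, “alone” for “plus a fixed dose of dasatinib (dose not stated)”, “XLfit (4-parameter),” for “XLfit,”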
# CAKI-1 [31] = experiment: GI50, drug alone; higher = less potent; conditions: treatment: drug alone; 5 days
# Experimental: as §1, with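 “HTS:” for “HTS combination arm:”, “alone” for “plus a fixed dose of dasatinib (dose not stated)”, “XLfit (4-parameter),” for “XLfit,”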
# 769-P [32] = experiment: GI50, drug alone; higher = less potent; conditions: treatment: drug alone; 5 days
# Experimental: as §1, with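 “HTS:” for “HTS combination arm:”, “alone” for “plus a fixed dose of dasatinib (dose not stated)”, “XLfit (4-parameter),” for “XLfit,”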
# TK-10 [33] = experiment: GI50, drug alone; higher = less potent; conditions: treatment: drug alone; 5 days
# Experimental: as §1, with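 “HTS:” for “HTS combination arm:”, “alone” for “plus a fixed dose of dasatinib (dose not stated)”, “XLfit (4-parameter),” for “XLfit,”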
# A498 [34] = experiment: GI50, drug alone; higher = less potent; conditions: treatment: drug alone; 5 days
# Experimental: as §1, with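 “HTS:” for “HTS combination arm:”, “alone” for “plus a fixed dose of dasatinib (dose not stated)”, “XLfit (4-parameter),” for “XLfit,”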
# ACHN [35] = experiment: GI50, drug alone; higher = less potent; conditions: treatment: drug alone; 5 days
# Experimental: as §1, with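 “HTS:” for “HTS combination arm:”, “alone” for “plus a fixed dose of dasatinib (dose not stated)”, “XLfit (4-parameter),” for “XLfit,”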
# SN12C [36] = experiment: GI50, drug alone; higher = less potent; conditions: treatment: drug alone; 5 days
# Experimental: as §1, with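 “HTS:” for “HTS combination arm:”, “alone” for “plus a fixed dose of dasatinib (dose not stated)”, “XLfit (4-parameter),” for “XLfit,”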
# UO-31 [37] = experiment: GI50, drug alone; higher = less potent; conditions: treatment: drug alone; 5 days
# Experimental: as §1, with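 “HTS:” for “HTS combination arm:”, “alone” for “plus a fixed dose of dasatinib (dose not stated)”, “XLfit (4-parameter),” for “XLfit,”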
# 786-O [38] = experiment: AUC of dose-response viability curve, drug alone (arbitrary (AUC of normalised viability)); higher = less growth inhibition; conditions: treatment: drug alone; 5 days
# Experimental: as §1, with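 “HTS:” for “HTS combination arm:”, “alone” for “plus a fixed dose of dasatinib (dose not stated)”, “XLfit (4-parameter),” for “XLfit,”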
# CAKI-1 [39] = experiment: as above; conditions: treatment: drug alone; 5 days
# Experimental: as §1, with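 “HTS:” for “HTS combination arm:”, “alone” for “plus a fixed dose of dasatinib (dose not stated)”, “XLfit (4-parameter),” for “XLfit,”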
# 769-P [40] = experiment: as above; conditions: treatment: drug alone; 5 days
# Experimental: as §1, with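 “HTS:” for “HTS combination arm:”, “alone” for “plus a fixed dose of dasatinib (dose not stated)”, “XLfit (4-parameter),” for “XLfit,”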
# TK-10 [41] = experiment: as above; conditions: treatment: drug alone; 5 days
# Experimental: as §1, with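 “HTS:” for “HTS combination arm:”, “alone” for “plus a fixed dose of dasatinib (dose not stated)”, “XLfit (4-parameter),” for “XLfit,”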
# A498 [42] = experiment: as above; conditions: treatment: drug alone; 5 days
# Experimental: as §1, with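 “HTS:” for “HTS combination arm:”, “alone” for “plus a fixed dose of dasatinib (dose not stated)”, “XLfit (4-parameter),” for “XLfit,”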
# ACHN [43] = experiment: as above; conditions: treatment: drug alone; 5 days
# Experimental: as §1, with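 “HTS:” for “HTS combination arm:”, “alone” for “plus a fixed dose of dasatinib (dose not stated)”, “XLfit (4-parameter),” for “XLfit,”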
# SN12C [44] = experiment: as above; conditions: treatment: drug alone; 5 days
# Experimental: as §1, with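 “HTS:” for “HTS combination arm:”, “alone” for “plus a fixed dose of dasatinib (dose not stated)”, “XLfit (4-parameter),” for “XLfit,”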
# UO-31 [45] = experiment: as above; conditions: treatment: drug alone; 5 days
# Experimental: as §1, with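 “HTS:” for “HTS combination arm:”, “alone” for “plus a fixed dose of dasatinib (dose not stated)”, “XLfit (4-parameter),” for “XLfit,”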
structure (smiles),measurement,setting,value
Cc1cc(C(C)Nc2ccccc2)c2nc(N3CCOCC3)cc(=O)n2c1 (centres undefined) [TGX-221] + Cc1nc(Nc2ncc(C(=O)Nc3c(C)cccc3Cl)s2)cc(N2CCN(CCO)CC2)n1 [dasatinib],minimum viability across doses,786-O [1],0.299
same,minimum viability across doses,CAKI-1 [2],0.281
same,minimum viability across doses,769-P [3],0.346
same,minimum viability across doses,TK-10 [4],0.554
same,minimum viability across doses,A498 [5],0.949
same,minimum viability across doses,ACHN [6],0.424
same,minimum viability across doses,SN12C [7],0.624
same,minimum viability across doses,UO-31 [8],0.349
same,AUC of dose-response viability curve,786-O [9],2.04
same,AUC of dose-response viability curve,CAKI-1 [10],1.83
same,AUC of dose-response viability curve,769-P [11],2.01
same,AUC of dose-response viability curve,TK-10 [12],2.35
same,AUC of dose-response viability curve,A498 [13],3.6
same,AUC of dose-response viability curve,ACHN [14],1.82
same,AUC of dose-response viability curve,SN12C [15],2.4
same,AUC of dose-response viability curve,UO-31 [16],3.16
same,GI50 of drug,CAKI-1 [17],0.231 µM
same,GI50 of drug,TK-10 [18],> 10 µM
same,GI50 of drug,A498 [19],> 10 µM
same,GI50 of drug,SN12C [20],> 10 µM
same,GI50 of drug,UO-31 [21],4.86 µM
Cc1ccc(S(=O)(=O)Nc2nc3ccccc3nc2Nc2ccc3nsnc3c2)cc1 [XL147],minimum viability across doses,786-O [22],0.768
same,minimum viability across doses,CAKI-1 [23],1.03
same,minimum viability across doses,769-P [24],0.884
same,minimum viability across doses,TK-10 [25],0.902
same,minimum viability across doses,A498 [26],0.933
same,minimum viability across doses,ACHN [27],0.811
same,minimum viability across doses,SN12C [28],0.92
same,minimum viability across doses,UO-31 [29],1.13
same,"GI50, drug alone",786-O [30],> 10 µM
same,"GI50, drug alone",CAKI-1 [31],> 10 µM
same,"GI50, drug alone",769-P [32],> 10 µM
same,"GI50, drug alone",TK-10 [33],> 10 µM
same,"GI50, drug alone",A498 [34],> 10 µM
same,"GI50, drug alone",ACHN [35],> 10 µM
same,"GI50, drug alone",SN12C [36],> 10 µM
same,"GI50, drug alone",UO-31 [37],> 10 µM
same,AUC of dose-response viability curve,786-O [38],3.2
same,AUC of dose-response viability curve,CAKI-1 [39],3.82
same,AUC of dose-response viability curve,769-P [40],3.3
same,AUC of dose-response viability curve,TK-10 [41],3.52
same,AUC of dose-response viability curve,A498 [42],3.61
same,AUC of dose-response viability curve,ACHN [43],3.19
same,AUC of dose-response viability curve,SN12C [44],3.52
same,AUC of dose-response viability curve,UO-31 [45],4.38
COc1cc2nccc(Oc3ccc(NC(=O)C4(C(=O)Nc5ccc(F)cc5)CC4)cc3)c2cc1OC [XL-184 free base (Cabozantinib)],minimum viability across doses,786-O [22],0.222
same,minimum viability across doses,CAKI-1 [23],0.116
same,minimum viability across doses,769-P [24],0.557
same,minimum viability across doses,TK-10 [25],0.102
same,minimum viability across doses,A498 [26],0.805
same,minimum viability across doses,ACHN [27],0.221
same,minimum viability across doses,SN12C [28],0.279
same,minimum viability across doses,UO-31 [29],0.675
same,"GI50, drug alone",786-O [30],5.69 µM
same,"GI50, drug alone",CAKI-1 [31],4.71 µM
same,"GI50, drug alone",769-P [32],> 10 µM
same,"GI50, drug alone",TK-10 [33],4.14 µM
same,"GI50, drug alone",A498 [34],> 10 µM
same,"GI50, drug alone",ACHN [35],1.34 µM
same,"GI50, drug alone",SN12C [36],5.27 µM
same,"GI50, drug alone",UO-31 [37],> 10 µM
same,AUC of dose-response viability curve,786-O [38],3.06
same,AUC of dose-response viability curve,CAKI-1 [39],3.2
same,AUC of dose-response viability curve,769-P [40],3.39
same,AUC of dose-response viability curve,TK-10 [41],2.91
same,AUC of dose-response viability curve,A498 [42],3.95
same,AUC of dose-response viability curve,ACHN [43],2.25
same,AUC of dose-response viability curve,SN12C [44],2.92
same,AUC of dose-response viability curve,UO-31 [45],3.88
